Data reported in patent publication US8258138B2, “Potassium channel blockers” (Xention Limited, priority 2008, dated 2012).

Molecular target: T1, human Kv1.3 (Homo sapiens, UniProt P22001)
T1 construct: expressed in transfected cells; host or cells: stably transfected cells grown in medium for CHO cells
Experiment: Kv1.3 Autopatch electrophysiology (whole cell patch-clamp, inhibition of charge movement)
Type: cell-based
Conditions: compound at 1 μM; cells stably transfected with human Kv1.3; room temperature; total charge during step to +30 mV relative to control
Experimental: Kv1.3 Autopatch Electrophysiology Method
Compounds were tested on these cells using the AutoPatch technology in whole cell mode.
The external bathing solution contained (in mM): 150 NaCl, 10 KCl, 1 MgCl2, 3 CaCl2, 10 HEPES, pH 7.4 with NaOH. Patch pipettes were filled with an electrode solution of composition (in mM): 100 K-Gluconate, 20 KCl, 1 MgCl2, 1 CaCl2, 10 HEPES, 11 EGTA, 5 ATP-Na2, 2 Glutathione pH 7.2 with KOH.
Compounds were dissolved in DMSO (100%) and made up in the external bather at a concentration of 1 μM immediately prior to use. All experiments were conducted at room temperature.
A cell suspension (10 ml), with a density of 6×10^6 cells, was aliquoted into a 15 ml centrifuge tube and stored at 4° C. before use. Prior to use a tube was taken and centrifuged at 1000 rpm for 4 mins at room temperature. The supernatant was then discarded, leaving a cell pellet at the bottom of the tube. The pellet was then resuspended using 1 ml of cold (4° C.), filtered (0.22 μm), 0.05% BSA/bather solution (0.05 g BSA/100 ml bather). The bottom of the tube was manually agitated followed by gentle tituration. The cell suspension was then placed in the AutoPatch™ temperature controlled cell-hotel at 14° C. and regularly titurated.
A length of Teflon capillary tubing was dipped into the cell suspension solution, and a column of fluid was taken up by negative pressure. The column of fluid was in electrically connectivity with a Ag/AgCl reference electrode. Borosilicate glass patch pipettes (from 1.5 mm OD, thin-walled filamented, GC150-TF capillary glass, Harvard) were pulled using a DMZ pipette puller (Zeitz Instruments), and were back-filled using the internal pipette solution, being careful that no bubbles remained at the tip or in the body of the pipette. Patch pipettes typically had resistances of 2.5-3.5 MΩ. Once filled, the pipette tip and a proportion of the shaft (˜15 mm) were dipped into Sigmacote (Sigma). The recording pipettes were placed in a multiwell array and mounted on the AutoPatch™ machine. Automated patch-clamping and drug-application was initiated by the operator, but thereafter AutoPatch.exe continued the experiment providing that pre-set conditions and criteria were satisfied.
Whole cell patch-clamp recordings were made using the AutoPatch™ rig, which incorporated an EPC9 or EPC10 amplifier (HEKA, Germany) under control of Pulse software (v8.54 or v8.76, HEKA, Germany), a cell applicator, automated drug application system (DAS), valve controller (VF1) and a suction device all at room temperature. This equipment was completely under the control of AutoPatch.exe and operator intervention was only made when there was a requirement to refill the bather reservoirs or to prevent the loss of a cell due to a technical error.
Cells were continuously perfused with external solution at a flow rate of ˜2 ml/minute.
Electrophysiology voltage-step protocols and analysis of data was performed as follows. Data were sampled at 5 kHz, and filtered with a −3 dB bandwidth of 2.5 kHz. Cells were held at a voltage of −80 mV. Currents were evoked by a voltage step to +30 mV for 500 ms in duration applied every 15 s. Online analysis of the hKv1.3 current during the application of compounds was performed by the Pulse (v8.54 or v8.76, HEKA, Germany), Excel (Microsoft, USA) and AutoPatch™ software, with the total charge measured during the whole of voltage step. Inhibition of charge movement in the presence of drug was calculated relative to control.

T1 sequence (P22001 whole entry): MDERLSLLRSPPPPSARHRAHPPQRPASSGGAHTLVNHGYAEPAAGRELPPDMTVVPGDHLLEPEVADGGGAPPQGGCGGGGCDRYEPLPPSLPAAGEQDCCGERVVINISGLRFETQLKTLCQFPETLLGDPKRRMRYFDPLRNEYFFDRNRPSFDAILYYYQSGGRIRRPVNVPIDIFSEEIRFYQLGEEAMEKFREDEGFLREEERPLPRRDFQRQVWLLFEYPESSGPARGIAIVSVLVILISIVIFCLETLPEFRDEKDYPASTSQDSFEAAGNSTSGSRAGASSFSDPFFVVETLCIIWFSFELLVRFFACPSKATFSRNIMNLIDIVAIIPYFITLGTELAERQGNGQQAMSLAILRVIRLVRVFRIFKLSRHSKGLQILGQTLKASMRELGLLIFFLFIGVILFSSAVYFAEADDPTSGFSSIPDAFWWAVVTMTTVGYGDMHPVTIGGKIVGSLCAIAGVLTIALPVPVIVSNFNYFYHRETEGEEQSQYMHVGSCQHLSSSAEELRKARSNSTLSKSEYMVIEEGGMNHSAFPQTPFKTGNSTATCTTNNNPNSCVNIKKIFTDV

Row | SMILES | hKv1.3 % inh. [%]
1 | CC(C)c1noc(C2CCCN(C(=O)c3ccc(N(Cc4ccccc4)S(=O)(=O)N(C)C)cc3)C2)n1 (centres unmarked) [Example 69, N-Benzyl-N′N′-dimethyl-N-{4-[3-(3-isopropyl-[1,2,4]oxadiazol-5-yl)-piperidine-1-carbonyl]-phenyl}-sulfamide] | 31
2 | CN(C)S(=O)(=O)N(Cc1ccccc1)c1ccc(C(=O)N2CCC(Oc3ccccc3)CC2)cc1 [Example 72, N-Benzyl-N′N′-dimethyl-N-[4-(4-phenoxy-piperidine-1-carbonyl)-phenyl]-sulfamide] | 68
3 | CN(C)S(=O)(=O)N(Cc1ccccc1)c1ccc(C(=O)N2CCN(c3ccccc3C#N)CC2)cc1 [Example 5, N-Benzyl-N′N′-dimethyl-N-{4-[4-(2-cyano-phenyl)-piperazine-1-carbonyl]-phenyl}-sulfamide] | 42

Same assay, conditions: compound at 1 μM; cells stably transfected with human Kv1.3; room temperature; total charge during step to +30 mV relative to control; read-out: hKv1.3 % inh.

Row | SMILES | inhibition at 1 µM [%]
4 | O=C(c1ccc(N(Cc2ccccc2)S(=O)(=O)c2ccco2)cc1)N1CCN(c2ccccc2)CC1 [Example 41, Furan-2-sulfonic acid benzyl-[4-(4-phenyl-piperazine-1-carbonyl)-phenyl]-amide] | 81
5 | N#Cc1ccc(CN(c2ccc(C(=O)N3CCN(c4ccccc4)CC3)cc2)S(=O)(=O)c2ccccc2)cc1 [Example 2, N-(4-Cyano-benzyl)-N-[4-(4-phenyl-piperazine-1-carbonyl)-phenyl]-benzenesulfonamide] | 76
6 | O=C(c1ccc(N(Cc2cccc(OC(F)(F)F)c2)S(=O)(=O)c2ccccc2)cc1)N1CCN(c2ccccc2)CC1 [Example 37, N-[4-(4-Phenyl-piperazine-1-carbonyl)-phenyl]-N-(3-trifluoromethoxy-benzyl)-benzenesulfonamide] | 46
7 | Cc1noc(C2CCCN(C(=O)c3ccc(N(Cc4ccccc4)S(=O)(=O)c4cn(C)cn4)cc3)C2)n1 (centres unmarked) [Example 65, 1-Methyl-1H-imidazole-4-sulfonic acid benzyl-{4-[3-(3-methyl-[1,2,4]oxadiazol-5-yl)-piperidine-1-carbonyl]-phenyl}-amide] | 57
8 | N#Cc1ccc(S(=O)(=O)N(Cc2ccccc2)c2ccc(C(=O)N3CCN(c4ccccc4)CC3)cc2)cc1 [Example 22, N-Benzyl-4-cyano-N-[4-(4-phenyl-piperazine-1-carbonyl)-phenyl]-benzenesulfonamide] | 39
9 | COc1cccc(CN(c2ccc(C(=O)N3CCN(c4ccccc4)CC3)cc2)S(=O)(=O)c2cn(C)cn2)c1 [Example 45, 1-Methyl-1H-imidazole-4-sulfonic acid (3-methoxy-benzyl)-[4-(4-phenyl-piperazine-1-carbonyl)-phenyl]-amide] | 54
10 | O=C(c1ccc(N(Cc2ccccc2)S(=O)(=O)c2ccccc2)cc1)N1CCC(O)(c2ccccc2)CC1 [Example 58, N-Benzyl-N-[4-(4-hydroxy-4-phenyl-piperidine-1-carbonyl)-phenyl]benzenesulfonamide] | 81
11 | N#Cc1ccccc1CN(c1ccc(C(=O)N2CCN(c3ccccc3)CC2)cc1)S(=O)(=O)c1ccccc1 [Example 38, N-(2-Cyano-benzyl)-N-[4-(4-phenyl-piperazine-1-carbonyl)-phenyl]-benzenesulfonamide] | 50
12 | Cc1ccc(C2CCCN(C(=O)c3ccc(N(Cc4ccc(Cl)cc4)S(=O)(=O)c4ccccc4)cc3)C2)cc1 (centres unmarked) [Example 4, N-(4-Chloro-benzyl)-N-[4-(3-p-tolyl-piperidine-1-carbonyl)-phenyl]-benzenesulfonamide] | 67
13 | CC1CN(C(=O)c2ccc(N(Cc3ccccc3)S(=O)(=O)c3ccccc3)cc2)CC(C)O1 (centres unmarked) [Example 56, N-Benzyl-N-[4-(2,6-dimethyl-morpholine-4-carbonyl)-phenyl]-benzenesulfonamide] | 42

More lines, now with the values ahead:

Row | inhibition at 1 µM [%] | SMILES
14 | 78 | Cn1cnc(S(=O)(=O)N(Cc2ccccc2)c2ccc(C(=O)N3CCC(c4ccc(F)cc4)C3)cc2)c1 (centres unmarked) [Example 82, 1-Methyl-1H-imidazole-4-sulfonic acid benzyl-{4-[3-(4-fluoro-phenyl)-pyrrolidine-1-carbonyl]-phenyl}-amide]
15 | 61 | Cn1nccc1S(=O)(=O)N(Cc1ccccc1)c1ccc(C(=O)N2CCNC(c3ccccc3)C2)cc1 (centres unmarked) [Example 89, 2-Methyl-2H-pyrazole-3-sulfonic acid benzyl-[4-(3-phenyl-piperazine-1-carbonyl)-phenyl]-amide]
16 | 81 | CN1CCN(C(=O)c2ccc(N(Cc3ccccc3)S(=O)(=O)c3ccnn3C)cc2)CC1c1ccccc1 (centres unmarked) [Example 91, 2-Methyl-2H-pyrazole-3-sulfonic acid benzyl-[4-(4-methyl-3-phenyl-piperazine-1-carbonyl)-phenyl]-amide]
17 | 45 | Cn1cnc(S(=O)(=O)N(Cc2ccccc2)c2ccc(C(=O)N3CCN(CC4CCCCC4)CC3)cc2)c1 [Example 76, 1-Methyl-1H-imidazole-4-sulfonic acid benzyl-[4-(4-cyclohexylmethyl-piperazine-1-carbonyl)-phenyl]-amide]
18 | 61 | Cn1cnc(S(=O)(=O)N(Cc2ccc(F)c(Cl)c2)c2ccc(C(=O)N3CCCCC3)cc2)c1 [Example 97, 1-Methyl-1H-imidazole-4-sulfonic acid (3-chloro-4-fluoro-benzyl)-[4-(piperidine-1-carbonyl)-phenyl]-amide]
19 | 51 | CC1CCCN(C(=O)c2ccc(N(Cc3ccccc3)S(=O)(=O)c3cn(C)cn3)cc2)C1 (centres unmarked) [Example 74, 1-Methyl-1H-imidazole-4-sulfonic acid benzyl-[4-(3-methyl-piperidine-1-carbonyl)-phenyl]-amide]
20 | 89 | Cn1ccc(S(=O)(=O)N(Cc2ccccc2)c2ccc(C(=O)N3CCOC(c4ccccc4)C3)cc2)n1 (centres unmarked) [Example 84, 1-Methyl-1H-pyrazole-3-sulfonic acid benzyl-[4-(2-phenyl-morpholine-4-carbonyl)-phenyl]-amide]
21 | 52 | Cn1cnc(S(=O)(=O)N(Cc2ccc(Cl)cc2)c2ccc(C(=O)N3CCC(F)(F)C3)cc2)c1 [Example 100, 1-Methyl-1H-imidazole-4-sulfonic acid (4-chloro-benzyl)-[4-(3,3-difluoro-pyrrolidine-1-carbonyl)-phenyl]-amide]
22 | 64 | Cn1cnc(S(=O)(=O)N(Cc2ccccc2)c2ccc(C(=O)N3CCN(c4ccccc4F)CC3)cc2)c1 [Example 75, 1-Methyl-1H-imidazole-4-sulfonic acid benzyl-{4-[4-(2-fluoro-phenyl)-piperazine-1-carbonyl]-phenyl}-amide]
23 | 52 | CC1CCCN(C(=O)c2ccc(N(Cc3ccc(F)cc3)S(=O)(=O)c3cn(C)cn3)cc2)C1 (centres unmarked) [Example 94, 1-Methyl-1H-imidazole-4-sulfonic acid (4-fluoro-benzyl)-[4-(3-methyl-piperidine-1-carbonyl)-phenyl]-amide]
24 | 43 | Cn1cnc(S(=O)(=O)N(Cc2ccc(Cl)cc2)c2ccc(C(=O)N3CCCCC3)cc2)c1 [Example 67, 1-Methyl-1H-imidazole-4-sulfonic acid (4-chloro-benzyl)-[4-(piperidine-1-carbonyl)-phenyl]-amide]
25 | 52 | CC1CCN(C(=O)c2ccc(N(Cc3ccc(Cl)cc3)S(=O)(=O)c3cn(C)cn3)cc2)C1 (centres unmarked) [Example 99, 1-Methyl-1H-imidazole-4-sulfonic acid (4-chloro-benzyl)-[4-(3-methyl-pyrrolidine-1-carbonyl)-phenyl]-amide]
26 | 74 | Cn1cnc(S(=O)(=O)N(Cc2ccccc2)c2ccc(C(=O)N3CCCC(C(F)(F)F)C3)cc2)c1 (centres unmarked) [Example 78, 1-Methyl-1H-imidazole-4-sulfonic acid benzyl-[4-(3-trifluoromethyl-piperidine-1-carbonyl)-phenyl]-amide]
